{"source": "patent US4490376A", "about": "“Substituted ethenyl derivatives of 1H-pyrazolo-[1,5-a]pyrimidine having gastroenteric activity, compositions thereof, and methods of using the same” (Farmitalia Carlo Erba S.p.A, priority 1982, dated 1984)", "key": {"restraint ulcers": {"test_system": "restraint ulcers", "assay": "inhibition of restraint ulcers in rats (Bonfils et al.), anti-ulcerogenic activity", "assay_type": "in vivo, Sprague-Dawley male rats", "settings": "po; rat; p.o. one hour before immobilization; lesions counted 4 hours after immobilization; approximate ED50; read-out: Antiulcerogenic activity ED50 p.o.", "source_text": "(§1) The compounds of the present invention are active on the gastroenteric system, in particular they are endowed with anti-ulcerogenic and gastric anti-secretory activity and are therefore useful in therapy, for example in the prevention and treatment of peptic, e.g. duodenal, gastric and exophageal, ulcers and to inhibit gastric acid secretion. The compounds of the invention are also useful for reducing the undesirable gastrointestinal sideeffects resulting from systemic administration of antiinflammatory prostaglandin synthetase inhibitors and may be, therefore, used for this purpose in association with them. […] Six Sprague-Dawley male rats (100-120 g) fasted 24 hours were used for the experiment: a square flexible small-mesh were netting was used for the immobilization and 4 hours after the immobilization the rats were sacrificed, their stomachs were removed and the lesions counted under a dissecting microscope. […] Gastric antisecretory activity was evaluated in rats by the pylorus ligature technique. […] Four hours after the ligature the rats were sacrificed, the stomach secretion was collected and centrifuged at 3500 r.p.m. for 10 minutes, and the volume, less sediment, was determined."}, "gastric secretion": {"test_system": "gastric secretion", "assay": "inhibition of gastric secretion, pylorus ligature technique (Shay et al.), gastric antisecretory activity", "assay_type": "in vivo, Sprague-Dawley male rats", "settings": "rat; intraduodenal at the time of pylorus ligature; 4 hours; approximate ED50; read-out: Gastric anti-secretory activity ED50 i.d.", "source_text": "as §1\nThe amount of the free hydrochloric acid in the gastric juice was determined by titration against 0.01N sodium hydroxide to pH 7.0 on the pH-meter."}, "[1]": {"assay": "approximate acute toxicity (LD50), single administration", "settings": "in vivo, po; mouse; per os; single administration of increasing doses; measured on the seventh day", "protocol": "In view of their high therapeutic index, the compounds of the invention can be used safely in medicine. For example, the approximate acute toxicity (LD50) of the compound 1-phenyl-5-trans-[2-(3-pyridyl)-ethenyl]-1H,7H-pyrazolo [1,5-a]pyrimidine-7-one (FCE 21542) in the mouse, determined by single administration of increasing doses and measured on the seventh day after the day of treatment, is higher than 400 mg/kg per os. Analogous toxicity data have been found for other compounds of the invention. The compounds of the invention can be administered in a variety of dosage forms, e.g. orally, in the form of tablets, capsules, sugar or film coated tablets, liquid solutions or suspensions, rectally, in the form of suppositories, parenterally, e.g. intramuscularly, or by intravenous injection or infusion. The dosage depends on the age, weight, conditions of the patient and administration route; for example the dosage adopted for oral administration to adult humans may range from about 50 to about 200 mg pro dose, from 1 to 5 times daily. The invention includes also pharmaceutical compositions comprising a compound of the invention in association with a pharmaceutically acceptable excipient (which can be a carrier or diluent)."}}, "data": [{"smiles": "O=c1cc(/C=C/c2cccnc2)nc2ccn(-c3ccccc3)n12", "note": "[FCE 21542, 1-phenyl-5-trans-[2-(3-pyridyl)-ethenyl]-1H,7H-pyrazolo[1,5-a]pyrimidine-7-one]", "values": [{"measurement": "ED50", "setting": "restraint ulcers", "value": "~7", "unit": "mg/kg"}, {"measurement": "ED50", "setting": "gastric secretion", "value": "~3.2", "unit": "mg/kg"}, {"measurement": "LD50 at 168 h", "setting": "[1]", "value": "> 400", "unit": "mg/kg"}]}]}
